Data reported in PubChem BioAssay AID328 (DTP/NCI, 2004).
Where “and” joins values, the source holds several entries; their conditions need not be identical. Identical values can stand only once. Inconclusive results and toxic doses are left out.

System: BDF1 mice, P388 leukemia ip, median survival T/C
Assay: NCI In Vivo Anticancer Drug Screen. Data for tumor model P388 Leukemia (intraperitoneal) in B6D2F1 (BDF1) mice
Details: endpoint: median survival time, higher = longer survival
Procedure, shortened: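 Read-out is survival of treated animals expressed relative to the vehicle group, as a T/C ratio.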

[1] = dose: 50.0 mg/kg/injection, schedule: Q01DX009 (ip), vehicle: Klucel (hydroxypropylcellulose) (HPC)
[2] = dose: 100.0 mg/kg/injection, schedule: Q04DX003 (ip), vehicle: saline with Tween-80
[3] = dose: 400.0 mg/kg/injection, schedule: Q04DX003 (ip), vehicle: saline with Tween-80
[4] = dose: 50.0 mg/kg/injection, schedule: Q01DX009 (ip), vehicle: saline with Tween-80
[5] = dose: 100.0 mg/kg/injection, schedule: Q01DX009 (ip), vehicle: saline with Tween-80

N=c1c2c(C(N)=O)cn(C3OC(CO)C(O)C3O)c2ncn1O (stereo not given)
T/C (dose: 0.75 mg/kg/injection, schedule: Q01DX009 (ip), vehicle: saline with Tween-80): 122 % of control | T/C (dose: 1.5 mg/kg/injection, schedule: Q01DX009 (ip), vehicle: saline with Tween-80): 154 % of control | T/C (dose: 2.0 mg/kg/injection, schedule: Q01DX009 (ip), vehicle: saline with Tween-80): 180 % of control | T/C (dose: 2.0 mg/kg/injection, schedule: Q04DX003 (ip), vehicle: saline with Tween-80): 122 % of control | T/C (dose: 2.9 mg/kg/injection, schedule: Q04DX003 (ip), vehicle: saline with Tween-80): 160 % of control | T/C (dose: 4.4 mg/kg/injection, schedule: Q04DX003 (ip), vehicle: saline with Tween-80): 117 % of control | T/C (dose: 6.7 mg/kg/injection, schedule: Q04DX003 (ip), vehicle: saline with Tween-80): 166 % of control | T/C (dose: 10.0 mg/kg/injection, schedule: Q04DX003 (ip), vehicle: saline with Tween-80): 190 % of control | T/C (dose: 15.0 mg/kg/injection, schedule: Q04DX003 (ip), vehicle: saline with Tween-80): 123 % of control

N#C/C(=C\c1ccncc1)c1csc2ccccc12
T/C (dose: 50.0 mg/kg/injection, schedule: Q01DX011 (ip), vehicle: Klucel (hydroxypropylcellulose) (HPC)): 111 % of control | T/C (dose: 100.0 mg/kg/injection, schedule: Q01DX011 (ip), vehicle: Klucel (hydroxypropylcellulose) (HPC)): 107 % of control | T/C (dose: 200.0 mg/kg/injection, schedule: Q01DX011 (ip), vehicle: Klucel (hydroxypropylcellulose) (HPC)): 107 % of control | T/C (dose: 400.0 mg/kg/injection, schedule: Q01DX011 (ip), vehicle: Klucel (hydroxypropylcellulose) (HPC)): 89 % of control

CCSc1nc2ccc(Nn3nnnc3-c3ccccc3)cc2s1
T/C (dose: 12.5 mg/kg/injection, schedule: Q01DX009 (ip), vehicle: Klucel (hydroxypropylcellulose) (HPC)): 272 % of control | T/C (dose: 25.0 mg/kg/injection, schedule: Q01DX009 (ip), vehicle: Klucel (hydroxypropylcellulose) (HPC)): 98 % of control | T/C [1]: 118 % of control

CCCCNC(C)(C)CSSSCC(C)(C)NCCCC
T/C (dose: 6.25 mg/kg/injection, schedule: Q01DX009 (ip), vehicle: other): 110 % of control | T/C (dose: 12.5 mg/kg/injection, schedule: Q01DX009 (ip), vehicle: other): 86 % of control | T/C (dose: 12.5 mg/kg/injection, schedule: Q04DX003 (ip), vehicle: other): 98 % of control | T/C (dose: 25.0 mg/kg/injection, schedule: Q01DX009 (ip), vehicle: other): 114 % of control | T/C (dose: 25.0 mg/kg/injection, schedule: Q04DX003 (ip), vehicle: other): 117 % of control | T/C (dose: 50.0 mg/kg/injection, schedule: Q01DX009 (ip), vehicle: other): 110 % of control | T/C (dose: 50.0 mg/kg/injection, schedule: Q04DX003 (ip), vehicle: other): 117 % of control | T/C (dose: 100.0 mg/kg/injection, schedule: Q04DX003 (ip), vehicle: other): 112 % of control

CCCCCCCCCCSC#N
T/C (dose: 20.0 mg/kg/injection, schedule: Q04DX003 (ip), vehicle: saline): 87 % of control | T/C (dose: 40.0 mg/kg/injection, schedule: Q04DX003 (ip), vehicle: saline): 91 % of control | T/C (dose: 80.0 mg/kg/injection, schedule: Q04DX003 (ip), vehicle: saline): 91 % of control

CCOC(=O)CCc1nc(C(=O)OCC)c(C)c(=O)[nH]1
T/C [2]: 107 % of control | T/C (dose: 200.0 mg/kg/injection, schedule: Q04DX003 (ip), vehicle: saline with Tween-80): 103 % of control | T/C [3]: 100 % of control

CC(=O)Nc1cc(N(CCOS(C)(=O)=O)CCOS(C)(=O)=O)ccc1N=O
T/C (dose: 0.7 mg/kg/injection, schedule: Q04DX003 (ip), vehicle: saline with Tween-80): 179 % of control | T/C (dose: 1.1 mg/kg/injection, schedule: Q04DX003 (ip), vehicle: saline with Tween-80): 212 % of control | T/C (dose: 1.6 mg/kg/injection, schedule: Q04DX003 (ip), vehicle: saline with Tween-80): 208 % of control | T/C (dose: 1.65 mg/kg/injection, schedule: Q04DX003 (ip), vehicle: saline with Tween-80): 150 % of control and 191 % of control | T/C (dose: 2.5 mg/kg/injection, schedule: Q04DX003 (ip), vehicle: saline with Tween-80): 175 % of control | T/C (dose: 3.75 mg/kg/injection, schedule: Q04DX003 (ip), vehicle: saline with Tween-80): 104 % of control

COc1cc2cccccc-2cc1=O
T/C (dose: 100.0 mg/kg/injection, schedule: Q04DX003 (ip), vehicle: Klucel (hydroxypropylcellulose) (HPC)): 110 % of control | T/C (dose: 200.0 mg/kg/injection, schedule: Q04DX003 (ip), vehicle: Klucel (hydroxypropylcellulose) (HPC)): 115 % of control | T/C (dose: 400.0 mg/kg/injection, schedule: Q04DX003 (ip), vehicle: Klucel (hydroxypropylcellulose) (HPC)): 115 % of control

CCSC(CC(C)=O)c1ccc(Cl)c(Cl)c1 (stereo not given)
T/C [4]: 104 % of control | T/C [5]: 107 % of control | T/C (dose: 200.0 mg/kg/injection, schedule: Q01DX009 (ip), vehicle: saline with Tween-80): 118 % of control

C/C=C1\C(=O)O[C@@]23C=C[C@H]4C(C(=O)OC)=CO[C@@H](O[C@H]12)[C@H]43
T/C (dose: 0.75 mg/kg/injection, schedule: Q01DX009 (ip), vehicle: saline): 100 % of control | T/C (dose: 2.5 mg/kg/injection, schedule: Q01DX009 (ip), vehicle: saline): 115 % of control | T/C (dose: 165.0 micrograms/kg/injection, schedule: Q01DX009 (ip), vehicle: Klucel (hydroxypropylcellulose) (HPC)): 105 % of control | T/C (dose: 620.0 micrograms/kg/injection, schedule: Q01DX009 (ip), vehicle: Klucel (hydroxypropylcellulose) (HPC)): 115 % of control | T/C (dose: 1250.0 micrograms/kg/injection, schedule: Q01DX009 (ip), vehicle: Klucel (hydroxypropylcellulose) (HPC)): 105 % of control

Cc1cnc(Cl)nc1Sc1nc(N)nc2nc[nH]c12
T/C (dose: 6.0 mg/kg/injection, schedule: Q01DX009 (ip), vehicle: saline with Tween-80): 184 % of control | T/C (dose: 33.0 mg/kg/injection, schedule: Q04DX003 (ip), vehicle: saline with Tween-80): 118 % of control | T/C (dose: 50.0 mg/kg/injection, schedule: Q04DX003 (ip), vehicle: saline with Tween-80): 122 % of control | T/C (dose: 75.0 mg/kg/injection, schedule: Q04DX003 (ip), vehicle: saline with Tween-80): 109 % of control | T/C [2]: 100 % of control

O=C1c2ccccc2C(=O)c2c(NCCNCCNCCO)ccc(NCCNCCNCCO)c21
T/C (dose: 25.0 mg/kg/injection, schedule: Q01DX009 (ip), vehicle: water): 100 % of control | T/C (dose: 50.0 mg/kg/injection, schedule: Q01DX009 (ip), vehicle: water): 113 % of control | T/C (dose: 100.0 mg/kg/injection, schedule: Q01DX009 (ip), vehicle: water): 115 % of control

N=Nc1c2ccccc2c2nc3c(N)[nH]nc(N)c3nc12
T/C [2]: 97 % of control | T/C [3]: 95 % of control

COC(=O)/C=C\SC(=S)C1CCCC1=NC1CCCCC1 (stereo not given)
T/C [4]: 102 % of control | T/C [5]: 97 % of control

S=C(Nc1ccc(Cl)c(Cl)c1)N1c2ccccc2-n2cccc2C1c1cccnc1 (stereo not given)
T/C [1]: 124 % of control | T/C (dose: 100.0 mg/kg/injection, schedule: Q01DX009 (ip), vehicle: Klucel (hydroxypropylcellulose) (HPC)): 121 % of control | T/C (dose: 200.0 mg/kg/injection, schedule: Q01DX009 (ip), vehicle: Klucel (hydroxypropylcellulose) (HPC)): 117 % of control

O=C(Nc1ccccc1F)Nc1cccc2ccccc12
T/C (dose: 100.0 mg/kg/injection, schedule: Q01DX001 (ip), vehicle: saline with Tween-80): 100 % of control | T/C (dose: 200.0 mg/kg/injection, schedule: Q01DX001 (ip), vehicle: saline with Tween-80): 100 % of control | T/C (dose: 400.0 mg/kg/injection, schedule: Q01DX001 (ip), vehicle: saline with Tween-80): 90 % of control

COc1cc2c3c(c1)C(O)CC[N+]3(C)CCC2 (stereo not given)
T/C (dose: 12.5 mg/kg/injection, schedule: Q01DX009 (ip), vehicle: saline): 100 % of control | T/C (dose: 12.5 mg/kg/injection, schedule: Q04DX003 (ip), vehicle: saline): 109 % of control | T/C (dose: 25.0 mg/kg/injection, schedule: Q01DX009 (ip), vehicle: saline): 110 % of control | T/C (dose: 25.0 mg/kg/injection, schedule: Q04DX003 (ip), vehicle: saline): 109 % of control | T/C (dose: 50.0 mg/kg/injection, schedule: Q01DX009 (ip), vehicle: saline): 100 % of control | T/C (dose: 50.0 mg/kg/injection, schedule: Q04DX003 (ip), vehicle: saline): 109 % of control

COC(=O)C1=COC2OC3C(C(C)O)C(=O)OC34C=CC1C24 (stereo not given)
T/C (dose: 0.04 mg/kg/injection, schedule: Q01DX009 (ip), vehicle: saline + alcohol): 90 % of control | T/C (dose: 0.2 mg/kg/injection, schedule: Q01DX009 (ip), vehicle: saline + alcohol): 95 % of control | T/C (dose: 1.0 mg/kg/injection, schedule: Q01DX009 (ip), vehicle: saline + alcohol): 118 % of control | T/C (dose: 5.0 mg/kg/injection, schedule: Q01DX009 (ip), vehicle: saline + alcohol): 118 % of control
